Reference: patent US11028079B2 (ConverGene LLC, priority 2015, dated 2021)

The compounds below were run against T1, BRD4 bromodomains (Homo sapiens, UniProt O60885) (assay: BROMOscan bromodomain competition binding assay (DiscoveRx)). Details: Kd from 11 compound concentrations ranging from 0 to 10 μM, read-out: BROMOscan Relative Activity.
T1 construct: fused on or other part: T7 phage capsid protein (phage-display fusion; the phage DNA is read out by qPCR)
How it was run: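 Compounds in 0.1% DMSO/0.9% MEG competed with a solid-phase acetylated peptide for T7 phage-fused BRD4 bromodomains, with the retained bromodomain measured by qPCR.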

Kd [nM]	Compound
500 to 5000	Cc1noc(C)c1-c1ccc2nc(C3=CCN(S(C)(=O)=O)CC3)nc(NCc3cccc(Cl)c3)c2c1 [Example 210, N-(3-chlorobenzyl)-6-(3,5-dimethylisoxazol-4-yl)-2-(1-(methylsulfonyl)-1,2,3,6-tetrahydropyridin-4-yl)quinazolin-4-amine]
< 500	Cc1ncc(CNC(=O)c2nc(NCc3cccc(Cl)c3)c3cc(-c4c(C)noc4C)ccc3n2)s1 [Example 212, 4-((3-chlorobenzyl)amino)-6-(3,5-dimethylisoxazol-4-yl)-N-((2-methylthiazol-5-yl)methyl)quinazoline-2-carboxamide]
< 500	Cc1noc(C)c1-c1ccc2nc(-c3cnn(CCO)c3)nc(N3CCOC[C@@H]3c3ccccc3)c2c1 [Example 306, (S)-2-(4-(6-(3,5-dimethylisoxazol-4-yl)-4-(3-phenylmorpholino)quinazolin-2-yl)-1H-pyrazol-1-yl)ethan-1-ol]
< 500	Cc1noc(C)c1-c1ccc2nc(C(=O)Nc3cnn(C)c3)nc(NCc3cccc(Cl)c3)c2c1 [Example 225, 4-((3-chlorobenzyl)amino)-6-(3,5-dimethylisoxazol-4-yl)-N-(1-methyl-1H-pyrazol-4-yl)quinazoline-2-carboxamide]
< 500	CN(C)C(=O)Cn1cc(-c2nc(NCc3cncc(Cl)c3)c3cc(-c4ccc(=O)n(C)c4)ccc3n2)cn1 [Example 146, 2-(4-(4-(((5-chloropyridin-3-yl)methyl)amino)-6-(1-methyl-6-oxo-1,6-dihydropyridin-3-yl)quinazolin-2-yl)-1H-pyrazol-1-yl)-N,N-dimethylacetamide]
< 500	COc1ccccc1CNc1nc(N2CCN(CCN(C)C)CC2)nc2ccc(-c3c(C)noc3C)cc12 [Example 72, 2-(4-(2-(dimethylamino)ethyl)piperazin-1-yl)-6-(3,5-dimethylisoxazol-4-yl)-N-(2-methoxybenzyl)quinazolin-4-amine]
500 to 5000	Cn1cc(-c2ccc3nc(-c4cnn(CC(C)(C)O)c4)nc(NCc4cncc(Cl)c4)c3c2)ccc1=O [Example 148, 5-(4-(((5-chloropyridin-3-yl)methyl)amino)-2-(1-(2-hydroxy-2-methylpropyl)-1H-pyrazol-4-yl)quinazolin-6-yl)-1-methylpyridin-2(1H)-one]
< 500	CNC(=O)CN1CCN(c2nc(NCc3cccc(Cl)c3)c3cc(-c4ccc(=O)n(C)c4)ccc3n2)CC1 [Example 109, 2-(4-(4-((3-chlorobenzyl)amino)-6-(1-methyl-6-oxo-1,6-dihydropyridin-3-yl)quinazolin-2-yl)piperazin-1-yl)-N-methylacetamide]
< 500	Cc1noc(C)c1-c1ccc2nc(C(=O)NCC3CN(C)C3)nc(NCc3cccc(Cl)c3)c2c1 [Example 200, 4-((3-chlorobenzyl)amino)-6-(3,5-dimethylisoxazol-4-yl)-N-((1-methylazetidin-3-yl)methyl)quinazoline-2-carboxamide]
> 5000	Cn1cc(-c2ccc3nc(Cl)nc(NCc4cncc(Cl)c4)c3c2)ccc1=O [Example 113, 5-(2-chloro-4-(((5-chloropyridin-3-yl)methyl)amino)quinazolin-6-yl)-1-methylpyridin-2(1H)-one]
< 500	Cc1noc(C)c1-c1ccc2nc(N3CCN(S(C)(=O)=O)CC3)nc(N3CCOC[C@@H]3c3ccccc3)c2c1 [Example 269, (S)-4-(6-(3,5-dimethylisoxazol-4-yl)-2-(4-(methylsulfonyl)piperazin-1-yl)quinazolin-4-yl)-3-phenylmorpholine]
< 500	Cc1noc(C)c1-c1ccc2nc(N3CCN(CCN(C)C)CC3)nc(NCc3cncc(Cl)c3)c2c1 [Example 81, N-((5-chloropyridin-3-yl)methyl)-2-(4-(2-(dimethylamino)ethyl)piperazin-1-yl)-6-(3,5-dimethylisoxazol-4-yl)quinazolin-4-amine]
< 500	Cc1noc(C)c1-c1ccc2nc(C(=O)NC3CCOCC3)nc(NC3(c4cccc(Cl)c4)CC3)c2c1 [Example 247, 4-((1-(3-chlorophenyl)cyclopropyl)amino)-6-(3,5-dimethylisoxazol-4-yl)-N-(tetrahydro-2H-pyran-4-yl)quinazoline-2-carboxamide]
< 500	CN(C)C(=O)CN1CCN(c2nc(NCc3cccc(Cl)c3)c3cc(-c4ccc(=O)n(C)c4)ccc3n2)CC1 [Example 110, 2-(4-(4-((3-chlorobenzyl)amino)-6-(1-methyl-6-oxo-1,6-dihydropyridin-3-yl)quinazolin-2-yl)piperazin-1-yl)-N,N-dimethylacetamide]
500 to 5000	CNc1nc(NCc2cccc(Cl)c2)c2cc(-c3c(C)noc3C)ccc2n1 [Example 5, N4-(3-chlorobenzyl)-6-(3,5-dimethylisoxazol-4-yl)-N2-methylquinazoline-2,4-diamine]
< 500	Cc1noc(C)c1-c1ccc2nc(NCc3ncc[nH]3)nc(NCc3cccc(Cl)c3)c2c1 [Example 178, N2-((1H-imidazol-2-yl)methyl)-N4-(3-chlorobenzyl)-6-(3,5-dimethylisoxazol-4-yl)quinazoline-2,4-diamine]

Kd [nM]	Compound
< 500	Cc1noc(C)c1-c1ccc2nc(-c3cnn(CC(C)(C)O)c3)nc(NC3(c4cccc(Cl)c4)CC3)c2c1 [Example 182, 1-(4-(4-((1-(3-chlorophenyl)cyclopropyl)amino)-6-(3,5-dimethylisoxazol-4-yl)quinazolin-2-yl)-1H-pyrazol-1-yl)-2-methylpropan-2-ol]
< 500	Cc1ncsc1CNC(=O)c1nc(NCc2cccc(Cl)c2)c2cc(-c3c(C)noc3C)ccc2n1 [Example 258, 4-((3-chlorobenzyl)amino)-6-(3,5-dimethylisoxazol-4-yl)-N-((4-methylthiazol-5-yl)methyl)quinazoline-2-carboxamide]
< 500	COc1nc(NCc2cccc(Cl)c2)c2cc(-c3c(C)noc3C)ccc2n1 [Example 8, N-(3-chlorobenzyl)-6-(3,5-dimethylisoxazol-4-yl)-2-methoxyquinazolin-4-amine]
< 500	Cc1ccncc1NC(=O)c1nc(NCc2cccc(Cl)c2)c2cc(-c3c(C)noc3C)ccc2n1 [Example 220, 4-((3-chlorobenzyl)amino)-6-(3,5-dimethylisoxazol-4-yl)-N-(4-methylpyridin-3-yl)quinazoline-2-carboxamide]
< 500	Cc1nn(C)c(C)c1CNC(=O)c1nc(NCc2cccc(Cl)c2)c2cc(-c3c(C)noc3C)ccc2n1 [Example 194, 4-((3-chlorobenzyl)amino)-6-(3,5-dimethylisoxazol-4-yl)-N-((1,3,5-trimethyl-1H-pyrazol-4-yl)methyl)quinazoline-2-carboxamide]
< 500	Cc1noc(C)c1CNC(=O)c1nc(NCc2cccc(Cl)c2)c2cc(-c3c(C)noc3C)ccc2n1 [Example 259, 4-((3-chlorobenzyl)amino)-6-(3,5-dimethylisoxazol-4-yl)-N-((3,5-dimethylisoxazol-4-yl)methyl)quinazoline-2-carboxamide]
< 500	Cc1noc(C)c1-c1ccc2nc(C(=O)NCc3ccncc3)nc(NCc3cccc(Cl)c3)c2c1 [Example 171, 4-((3-chlorobenzyl)amino)-6-(3,5-dimethylisoxazol-4-yl)-N-(pyridin-4-ylmethyl)quinazoline-2-carboxamide]
500 to 5000	Cc1noc(C)c1-c1ccc2nc(N3CCC(C)(C#N)CC3)nc(NCc3cccc(Cl)c3)c2c1 [Example 156, 1-(4-((3-chlorobenzyl)amino)-6-(3,5-dimethylisoxazol-4-yl)quinazolin-2-yl)-4-methylpiperidine-4-carbonitrile]
< 500	Cc1noc(C)c1-c1ccc2nc(C(=O)N[C@H]3C[C@H](O)C3)nc(NCc3cccc(Cl)c3)c2c1 [Example 253, 4-((3-chlorobenzyl)amino)-6-(3,5-dimethylisoxazol-4-yl)-N-((trans)-3-hydroxycyclobutyl)quinazoline-2-carboxamide]
< 500	CNC(=O)CN1CCN(c2nc(NCc3cccc(Cl)c3)c3cc(-c4c(C)noc4C)ccc3n2)CC1 [Example 53, 2-(4-(4-((3-chlorobenzyl)amino)-6-(3,5-dimethylisoxazol-4-yl)quinazolin-2-yl)piperazin-1-yl)-N-methylacetamide]
500 to 5000	Cc1noc(C)c1-c1ccc2nc(NCc3cccc(Cl)c3)cc(N3CCN(CCN(C)C)CC3)c2c1 [Example 27, N-(3-chlorobenzyl)-4-(4-(2-(dimethylamino)ethyl)piperazin-1-yl)-6-(3,5-dimethylisoxazol-4-yl)quinolin-2-amine]
< 500	CC(=O)N1CCN(c2nc(-c3cnn(CC(C)(C)O)c3)nc3ccc(-c4c(C)noc4C)cc23)[C@@H](c2ccccc2)C1 [Example 309, (S)-1-(4-(6-(3,5-dimethylisoxazol-4-yl)-2-(1-(2-hydroxy-2-methylpropyl)-1H-pyrazol-4-yl)quinazolin-4-yl)-3-phenylpiperazin-1-yl)ethan-1-one]
< 500	Cc1noc(C)c1-c1ccc2nc(N3CCN(CCCN(C)C)CC3)nc(NCc3cccc(Cl)c3)c2c1 [Example 16, N-(3-chlorobenzyl)-2-(4-(3-(dimethylamino)propyl)piperazin-1-yl)-6-(3,5-dimethylisoxazol-4-yl)quinazolin-4-amine]
< 500	Cc1noc(C)c1-c1ccc2nc(-c3cnn(C)c3)nc(NCc3cccc(Cl)c3)c2c1 [Example 49, N-(3-chlorobenzyl)-6-(3,5-dimethylisoxazol-4-yl)-2-(1-methyl-1H-pyrazol-4-yl)quinazolin-4-amine]
< 500	Cc1noc(C)c1-c1ccc2nc(C(=O)NCC3CN(C)C3)cc(NCc3cccc(Cl)c3)c2c1 [Example 231, 4-((3-chlorobenzyl)amino)-6-(3,5-dimethylisoxazol-4-yl)-N-((1-methylazetidin-3-yl)methyl)quinoline-2-carboxamide]
> 5000	CN(C)CCN1CCN(c2nc(NCc3cccc(Cl)c3)c3cc(-c4ccn(C)c(=O)c4)ccc3n2)CC1 [Example 116, 4-(4-((3-chlorobenzyl)amino)-2-(4-(2-(dimethylamino)ethyl)piperazin-1-yl)quinazolin-6-yl)-1-methylpyridin-2(1H)-one]
